In publication PMC11864979, “First-in-class ultralong-target-residence-time p38α inhibitors as a mitosis-targeted therapy for colorectal cancer” (Nature Cancer, 2025):
Read-outs that look alike come from different tables or passages of the source.

How the values were obtained:
Assay in all cases: selectivity profiling in a panel of 340 wild-type kinases (Reaction Biology Europe)
Type in all cases: binding
340 wild-type kinases [1] = biological target: T1, 340 wild-type kinases (Homo sapiens, UniProt Q00526)
T1 construct: purchased Reaction Biology Europe

340 wild-type kinases [2] = biological target: T2, 340 wild-type kinases (Homo sapiens, UniProt Q9UPE1)
T2 construct: purchased Reaction Biology Europe

340 wild-type kinases [3] = biological target: T3, 340 wild-type kinases (Homo sapiens, UniProt Q9BWU1)
T3 construct: purchased Reaction Biology Europe

340 wild-type kinases [4] = biological target: T4, 340 wild-type kinases (Homo sapiens, UniProt P10398, Y301D/Y302D)
T4 construct: purchased Reaction Biology Europe
T4 sequence (P10398 1-606 Y301D/Y302D): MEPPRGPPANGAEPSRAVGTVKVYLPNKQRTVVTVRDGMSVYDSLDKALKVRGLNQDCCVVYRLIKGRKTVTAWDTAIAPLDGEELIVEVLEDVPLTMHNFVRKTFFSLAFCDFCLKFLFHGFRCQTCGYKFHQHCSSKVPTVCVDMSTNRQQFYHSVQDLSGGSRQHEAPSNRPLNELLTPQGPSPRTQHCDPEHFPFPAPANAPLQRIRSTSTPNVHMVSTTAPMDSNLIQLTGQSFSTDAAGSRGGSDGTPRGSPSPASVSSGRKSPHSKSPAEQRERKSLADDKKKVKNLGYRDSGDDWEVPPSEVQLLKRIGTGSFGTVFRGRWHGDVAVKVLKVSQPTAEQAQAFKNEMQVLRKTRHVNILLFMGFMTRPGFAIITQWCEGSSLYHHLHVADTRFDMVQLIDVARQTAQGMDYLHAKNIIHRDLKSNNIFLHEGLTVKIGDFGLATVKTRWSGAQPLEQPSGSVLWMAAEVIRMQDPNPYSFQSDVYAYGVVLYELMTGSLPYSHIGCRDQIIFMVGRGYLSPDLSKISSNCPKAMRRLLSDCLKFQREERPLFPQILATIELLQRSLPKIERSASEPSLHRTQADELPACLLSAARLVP

340 wild-type kinases [5] = biological target: T5, 340 wild-type kinases (Homo sapiens, UniProt P31749)
T5 construct: purchased Reaction Biology Europe

340 wild-type kinases [6] = biological target: T6, 340 wild-type kinases (Homo sapiens, UniProt Q9UHD2)
T6 construct: purchased Reaction Biology Europe
T6 sequence (Q9UHD2 1-729): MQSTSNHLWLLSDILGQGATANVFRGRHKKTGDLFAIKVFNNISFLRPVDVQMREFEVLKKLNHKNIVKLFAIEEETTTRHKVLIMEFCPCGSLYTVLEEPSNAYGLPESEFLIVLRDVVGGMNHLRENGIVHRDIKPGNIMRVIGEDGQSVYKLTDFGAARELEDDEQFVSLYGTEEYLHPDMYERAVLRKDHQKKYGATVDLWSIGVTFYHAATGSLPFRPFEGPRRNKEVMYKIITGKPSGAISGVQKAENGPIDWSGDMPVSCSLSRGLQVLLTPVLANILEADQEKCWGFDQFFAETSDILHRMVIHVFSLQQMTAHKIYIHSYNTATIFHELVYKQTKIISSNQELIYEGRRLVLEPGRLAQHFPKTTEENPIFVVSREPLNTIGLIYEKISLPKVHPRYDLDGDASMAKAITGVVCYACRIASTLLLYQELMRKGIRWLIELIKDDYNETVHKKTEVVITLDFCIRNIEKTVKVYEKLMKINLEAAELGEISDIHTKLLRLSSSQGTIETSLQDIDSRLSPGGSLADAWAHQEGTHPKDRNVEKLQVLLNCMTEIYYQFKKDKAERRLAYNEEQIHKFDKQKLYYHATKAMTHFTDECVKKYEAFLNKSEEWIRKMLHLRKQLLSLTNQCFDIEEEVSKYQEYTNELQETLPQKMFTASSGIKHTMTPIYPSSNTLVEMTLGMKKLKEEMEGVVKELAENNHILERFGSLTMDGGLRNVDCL

340 wild-type kinases [7] = biological target: T7, 340 wild-type kinases (Homo sapiens, UniProt Q9UKI8)
T7 construct: purchased Reaction Biology Europe
T7 sequence (Q9UKI8 1-766): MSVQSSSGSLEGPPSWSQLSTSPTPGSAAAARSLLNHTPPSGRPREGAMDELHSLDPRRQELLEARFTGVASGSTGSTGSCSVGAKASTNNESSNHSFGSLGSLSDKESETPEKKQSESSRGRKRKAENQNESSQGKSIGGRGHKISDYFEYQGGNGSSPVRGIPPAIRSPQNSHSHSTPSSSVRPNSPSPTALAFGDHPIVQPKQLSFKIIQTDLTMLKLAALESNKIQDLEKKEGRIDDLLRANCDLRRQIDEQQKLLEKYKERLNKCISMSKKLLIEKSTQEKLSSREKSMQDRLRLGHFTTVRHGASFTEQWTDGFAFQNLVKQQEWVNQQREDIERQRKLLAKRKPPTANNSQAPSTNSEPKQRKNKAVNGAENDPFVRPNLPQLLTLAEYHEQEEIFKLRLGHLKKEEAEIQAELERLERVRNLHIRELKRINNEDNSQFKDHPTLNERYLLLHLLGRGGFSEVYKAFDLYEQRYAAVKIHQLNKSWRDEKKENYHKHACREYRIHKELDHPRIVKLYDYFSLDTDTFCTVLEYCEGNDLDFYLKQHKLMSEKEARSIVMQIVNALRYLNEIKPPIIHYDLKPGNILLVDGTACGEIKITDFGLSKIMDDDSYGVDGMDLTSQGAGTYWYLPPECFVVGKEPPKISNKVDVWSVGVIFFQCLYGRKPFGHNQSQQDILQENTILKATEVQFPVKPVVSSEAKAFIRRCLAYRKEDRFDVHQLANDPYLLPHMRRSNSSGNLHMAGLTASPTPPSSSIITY

T3 sequence (Q9BWU1 whole entry): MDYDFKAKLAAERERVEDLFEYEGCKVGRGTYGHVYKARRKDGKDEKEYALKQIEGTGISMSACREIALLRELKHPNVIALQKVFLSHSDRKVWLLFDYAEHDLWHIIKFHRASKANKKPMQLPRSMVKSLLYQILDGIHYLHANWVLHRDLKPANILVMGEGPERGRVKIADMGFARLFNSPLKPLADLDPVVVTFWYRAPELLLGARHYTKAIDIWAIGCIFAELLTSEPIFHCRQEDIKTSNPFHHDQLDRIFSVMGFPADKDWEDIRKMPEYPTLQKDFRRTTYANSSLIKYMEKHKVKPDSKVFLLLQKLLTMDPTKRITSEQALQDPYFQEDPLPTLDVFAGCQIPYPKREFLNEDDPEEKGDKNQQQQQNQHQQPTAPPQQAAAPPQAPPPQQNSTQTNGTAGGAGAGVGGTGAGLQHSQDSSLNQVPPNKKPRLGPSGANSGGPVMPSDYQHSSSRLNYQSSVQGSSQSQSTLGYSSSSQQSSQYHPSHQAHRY
T2 sequence (Q9UPE1 whole entry): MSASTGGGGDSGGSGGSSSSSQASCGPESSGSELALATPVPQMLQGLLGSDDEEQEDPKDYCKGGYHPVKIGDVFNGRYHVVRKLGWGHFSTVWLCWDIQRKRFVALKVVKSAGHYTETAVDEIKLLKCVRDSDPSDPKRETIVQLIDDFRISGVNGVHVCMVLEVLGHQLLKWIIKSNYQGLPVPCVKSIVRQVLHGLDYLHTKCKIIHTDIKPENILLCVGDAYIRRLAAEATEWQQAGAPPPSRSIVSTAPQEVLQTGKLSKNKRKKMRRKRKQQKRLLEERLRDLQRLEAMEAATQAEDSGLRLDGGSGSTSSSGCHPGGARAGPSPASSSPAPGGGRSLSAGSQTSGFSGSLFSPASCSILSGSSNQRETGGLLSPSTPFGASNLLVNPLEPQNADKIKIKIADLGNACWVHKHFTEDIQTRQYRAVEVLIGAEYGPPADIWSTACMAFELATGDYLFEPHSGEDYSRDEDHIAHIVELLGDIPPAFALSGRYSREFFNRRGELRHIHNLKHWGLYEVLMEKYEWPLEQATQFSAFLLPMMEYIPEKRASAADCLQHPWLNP
T1 sequence (Q00526 whole entry): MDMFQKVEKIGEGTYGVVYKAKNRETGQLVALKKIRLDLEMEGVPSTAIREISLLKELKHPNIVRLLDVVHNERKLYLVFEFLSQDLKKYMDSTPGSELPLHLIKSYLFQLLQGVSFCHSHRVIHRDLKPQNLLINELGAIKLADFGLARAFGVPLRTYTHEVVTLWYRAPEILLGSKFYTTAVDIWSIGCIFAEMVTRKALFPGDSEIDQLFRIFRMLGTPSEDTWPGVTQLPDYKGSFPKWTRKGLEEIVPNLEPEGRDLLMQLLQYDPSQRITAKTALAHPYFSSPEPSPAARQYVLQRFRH
T5 sequence (P31749 whole entry): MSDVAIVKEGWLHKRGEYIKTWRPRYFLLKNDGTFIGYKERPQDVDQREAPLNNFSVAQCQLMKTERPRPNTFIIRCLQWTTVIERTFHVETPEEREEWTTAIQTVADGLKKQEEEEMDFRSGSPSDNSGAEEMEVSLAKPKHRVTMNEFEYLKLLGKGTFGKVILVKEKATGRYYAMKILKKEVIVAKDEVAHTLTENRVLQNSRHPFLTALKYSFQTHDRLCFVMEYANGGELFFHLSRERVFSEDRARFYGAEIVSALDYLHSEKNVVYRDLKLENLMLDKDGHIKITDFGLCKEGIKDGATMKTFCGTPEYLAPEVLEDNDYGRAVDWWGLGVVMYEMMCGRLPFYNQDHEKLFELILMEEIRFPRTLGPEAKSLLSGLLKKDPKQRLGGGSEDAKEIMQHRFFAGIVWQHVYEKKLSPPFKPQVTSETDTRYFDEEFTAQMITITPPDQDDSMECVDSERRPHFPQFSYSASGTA

## CNC(=O)c1ccc2c(c1)C(=O)c1ccc(Nc3ccc(F)c(NC(=O)C4CC4)c3)cc1CC2 [Compound 2015]
340 wild-type kinases [1]; 0.2 µM 2015, read-out: CDK3/CycC residual activity
  remaining activity at 0.2 µM: 104%
340 wild-type kinases [1]; 0.2 µM 2015, read-out: CDK3/CycE1 residual activity
  remaining activity at 0.2 µM: 88.9%
340 wild-type kinases [1]; 1 µM 2015, read-out: CDK3/CycC residual activity
  remaining activity at 1 µM: 96.3%
340 wild-type kinases [1]; 1 µM 2015, read-out: CDK3/CycE1 residual activity
  remaining activity at 1 µM: 81.7%
340 wild-type kinases [1]; CDK3/CycC, 0.2 µM, read-out: residual activity
  remaining activity at 0.2 µM: 104%
340 wild-type kinases [1]; CDK3/CycC, 1 µM, read-out: residual activity
  remaining activity at 1 µM: 96.3%
340 wild-type kinases [1]; CDK3/CycE1, 0.2 µM, read-out: residual activity
  remaining activity at 0.2 µM: 88.9%
340 wild-type kinases [1]; CDK3/CycE1, 1 µM, read-out: residual activity
  remaining activity at 1 µM: 81.7%
340 wild-type kinases [2]; 0.2 µM 2015, read-out: STK23 residual activity
  remaining activity at 0.2 µM: 90.7%
340 wild-type kinases [2]; 1 µM 2015, read-out: STK23 residual activity
  remaining activity at 1 µM: 94.1%
340 wild-type kinases [2]; STK23, 0.2 µM, read-out: residual activity
  remaining activity at 0.2 µM: 90.7%
340 wild-type kinases [3]; 0.2 µM 2015, read-out: CDK19/CycC residual activity
  remaining activity at 0.2 µM: 99.8%
340 wild-type kinases [3]; 1 µM 2015, read-out: CDK19/CycC residual activity
  remaining activity at 1 µM: 96.4%
340 wild-type kinases [3]; CDK19/CycC, 0.2 µM, read-out: residual activity
  remaining activity at 0.2 µM: 99.8%
340 wild-type kinases [3]; CDK19/CycC, 1 µM, read-out: residual activity
  remaining activity at 1 µM: 96.4%
340 wild-type kinases [4]; 0.2 µM 2015, read-out: ARAF YDYD residual activity
  remaining activity at 0.2 µM: 98.8%
340 wild-type kinases [4]; 1 µM 2015, read-out: ARAF YDYD residual activity
  remaining activity at 1 µM: 106%
340 wild-type kinases [4]; ARAF YDYD, 0.2 µM, read-out: residual activity
  remaining activity at 0.2 µM: 98.8%
340 wild-type kinases [4]; ARAF YDYD, 1 µM, read-out: residual activity
  remaining activity at 1 µM: 106%
340 wild-type kinases [5]; 0.2 µM 2015, read-out: AKT1 residual activity
  remaining activity at 0.2 µM: 100%
340 wild-type kinases [5]; 1 µM 2015, read-out: AKT1 residual activity
  remaining activity at 1 µM: 98.7%
340 wild-type kinases [5]; AKT1, 0.2 µM, read-out: residual activity
  remaining activity at 0.2 µM: 100%
340 wild-type kinases [5]; AKT1, 1 µM, read-out: residual activity
  remaining activity at 1 µM: 98.7%
340 wild-type kinases [6]; 0.2 µM 2015, read-out: TBK1 residual activity
  remaining activity at 0.2 µM: 120%
340 wild-type kinases [6]; 1 µM 2015, read-out: TBK1 residual activity
  remaining activity at 1 µM: 101%
340 wild-type kinases [6]; TBK1, 0.2 µM, read-out: residual activity
  remaining activity at 0.2 µM: 120%
340 wild-type kinases [6]; TBK1, 1 µM, read-out: residual activity
  remaining activity at 1 µM: 101%
340 wild-type kinases [7]; 0.2 µM 2015, read-out: TLK1 residual activity
  remaining activity at 0.2 µM: 122%
340 wild-type kinases [7]; 1 µM 2015, read-out: TLK1 residual activity
  remaining activity at 1 µM: 105%
340 wild-type kinases [7]; TLK1, 0.2 µM, read-out: residual activity
  remaining activity at 0.2 µM: 122%
340 wild-type kinases [7]; TLK1, 1 µM, read-out: residual activity
  remaining activity at 1 µM: 105%
